Measurements: patent publication US20260364184A1, “COMPOUND BASED ON OXOISOINDOLINYL-SUBSTITUTED TETRAHYDROPYRIMIDINE-DIONE AND USE THEREOF” (GLUETACS THERAPEUTICS (SHANGHAI) CO., LTD., priority 2023, published 2026)

Tests used:
[1] = system: Human non-small cell lung cancer cell line NCI-H1975; test: Inhibition of H1975 cell proliferation (CellTiter luminescent viability); assay type: cell-based; details: Table ID1, EGFR inhibitor-based; H1975, 96 hours; read-out: Inhibitory activity (IC50, nM) on tumor cell proliferation, H1975
Method: The tumor cells used herein were cultured in a cell culture medium listed in table 3 at 37 °C in an incubator with 5% CO2. Prior to experimentation, all cell lines used were correctly identified by STR profiling, and tested negative for mycoplasma contamination using a mycoplasma detection kit through routine screenings.
The IC50 values of the compounds of the present disclosure (including the compounds in Table 1, Table 2, and Examples 1-468) were determined using the CellTiter-Meiluncell Luminescent Cell Viability Assay Kit from Dalian Meilun Biotech Co., Ltd. The detailed procedure is as follows: Tumor cells were seeded in 96-well cell culture plates at the densities specified in Table 4. On the following day, the test compounds of the present disclosure were subjected to serial dilution. The dilution can be performed according to one of the following two methods: • (1) The first dilution method: The test compounds of the present disclosure (including the compounds in Table 1, Table 2, and Examples 1-468) were subjected to 5-fold serial dilutions starting from a highest concentration of 2000 μM, resulting in a total of 9 concentrations from high to low (2000, 400, 80, 16, 3.2, 0.64, 0.128, 0.0256, 0.00512 μM). Subsequently, 0.5 μL of the test compound dilution was transferred into the 96-well plate containing the cells, with each well containing 100 μL of cell culture medium. […] Into the 96-well plate, the diluted test compounds and corresponding detection reagents were added, resulting in final test compound concentrations of 500 nM and 10 nM, respectively. The experimental procedure is described below using the diluted 2 μM test compound as an example.
0.5 μL of the aforementioned diluted compound of the present disclosure (including the compounds in Table 1, Table 2, and Examples 1-468) was added to the seeded cells in 100 μL of medium, yielding a final test compound concentration of 10 nM. After the cells were treated with the compounds of the present disclosure for a specified period, the cell viability assay reagent was added to the culture medium according to the kit's instructions to determine cell viability. […] All controls were treated using the same procedure as the compounds of the present disclosure. The growth inhibition curves for the compounds of the present disclosure were plotted using Prism GraphPad software, and the IC50 values were calculated therefrom.

EGFR = target: T1, EGFR (Homo sapiens, UniProt P00533); test: Western blot degradation of EGFR; assay type: cell-based; details: H1975 Cell; 24 hours
T1 construct: L858R/T790M in cis, heterozygous with wild type), Western blot
Method: Conventional Western blot assay was performed to evaluate the effects of the compounds of the present disclosure on the expression of target proteins in cells.
(1) Cell Seeding and Protein Harvesting: The selected cells were processed according to the cell seeding procedure and protein harvesting procedure in Table II-2.
(2) To the collected supernatant, 5×SDS sample loading buffer was added, followed by denaturation at 95 °C for 5 minutes. The denatured samples were then separated by SDS-PAGE electrophoresis on a polyacrylamide gel. Proteins were transferred to a nitrocellulose membrane (0.45 μm NC membrane), blocked with blocking buffer at room temperature for 1 hour, and subjected to antibody incubation and development procedures according to the antibody manufacturer's instructions (Cell Signaling Technology).
Half-Maximal Degradation Concentration value (the drug concentration required for degrading proteins by 50%, abbreviated as DC50) reads method: comparing the grayscale values of Western blot bands from drug-treated samples with those from blank DMSO-treated controls, and identifying the drug concentration range at which the grayscale value is half that of the DMSO-treated control bands.
DC50 values can be calculated using ImageJ software to measure grayscale values of Western blot bands from drug-treated samples. The concentration-response curve is fitted to estimate the drug concentration corresponding to half the grayscale value.
Target protein remaining (%) refers to the percentage of target protein remaining in cells after treatment with protein degrader compounds.
Calculation method for target protein remaining (%): Use ImageJ software to measure grayscale values of Western blot bands from drug (protein degrader)-treated samples. The grayscale value of drug-treated bands is divided by that of internal control protein bands, and the resulting quotient is normalized to obtain the relative percentage of remaining target protein after protein degrader treatment.
Target protein degradation rate (%)=1−target protein remaining (%).

[2] = target: T2, human Cereblon WT GST-tagged protein (CRBN) (Homo sapiens, UniProt Q96SW2); test: CRBN binding by HTRF (Cereblon binding kit)
T2 construct: purchased CISBIO 64BDCRBNPEH
How it was run: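 GST-tagged human Cereblon WT was incubated 3 h at room temperature with compound, thalidomide-Re tracer and Eu anti-GST antibody. Final compound concentrations were 10 to 0.00064 µM (7 points) or 2 and 0.5 µM. Inhibition rate was calculated from HTRF 665/620 nm ratios versus solvent and blank controls.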

T2 sequence (Q96SW2 whole entry): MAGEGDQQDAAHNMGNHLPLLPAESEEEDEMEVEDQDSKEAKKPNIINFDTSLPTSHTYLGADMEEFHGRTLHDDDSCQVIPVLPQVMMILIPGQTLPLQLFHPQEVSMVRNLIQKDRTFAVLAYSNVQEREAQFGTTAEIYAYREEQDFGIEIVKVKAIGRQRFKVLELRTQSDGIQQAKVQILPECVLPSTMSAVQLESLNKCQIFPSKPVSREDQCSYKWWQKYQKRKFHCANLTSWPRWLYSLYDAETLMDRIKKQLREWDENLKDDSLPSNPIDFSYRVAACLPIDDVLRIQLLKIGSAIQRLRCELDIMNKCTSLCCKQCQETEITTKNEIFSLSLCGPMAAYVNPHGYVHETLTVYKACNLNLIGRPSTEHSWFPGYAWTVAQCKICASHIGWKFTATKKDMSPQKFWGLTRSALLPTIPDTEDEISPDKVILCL
T1 sequence (P00533 25-1210): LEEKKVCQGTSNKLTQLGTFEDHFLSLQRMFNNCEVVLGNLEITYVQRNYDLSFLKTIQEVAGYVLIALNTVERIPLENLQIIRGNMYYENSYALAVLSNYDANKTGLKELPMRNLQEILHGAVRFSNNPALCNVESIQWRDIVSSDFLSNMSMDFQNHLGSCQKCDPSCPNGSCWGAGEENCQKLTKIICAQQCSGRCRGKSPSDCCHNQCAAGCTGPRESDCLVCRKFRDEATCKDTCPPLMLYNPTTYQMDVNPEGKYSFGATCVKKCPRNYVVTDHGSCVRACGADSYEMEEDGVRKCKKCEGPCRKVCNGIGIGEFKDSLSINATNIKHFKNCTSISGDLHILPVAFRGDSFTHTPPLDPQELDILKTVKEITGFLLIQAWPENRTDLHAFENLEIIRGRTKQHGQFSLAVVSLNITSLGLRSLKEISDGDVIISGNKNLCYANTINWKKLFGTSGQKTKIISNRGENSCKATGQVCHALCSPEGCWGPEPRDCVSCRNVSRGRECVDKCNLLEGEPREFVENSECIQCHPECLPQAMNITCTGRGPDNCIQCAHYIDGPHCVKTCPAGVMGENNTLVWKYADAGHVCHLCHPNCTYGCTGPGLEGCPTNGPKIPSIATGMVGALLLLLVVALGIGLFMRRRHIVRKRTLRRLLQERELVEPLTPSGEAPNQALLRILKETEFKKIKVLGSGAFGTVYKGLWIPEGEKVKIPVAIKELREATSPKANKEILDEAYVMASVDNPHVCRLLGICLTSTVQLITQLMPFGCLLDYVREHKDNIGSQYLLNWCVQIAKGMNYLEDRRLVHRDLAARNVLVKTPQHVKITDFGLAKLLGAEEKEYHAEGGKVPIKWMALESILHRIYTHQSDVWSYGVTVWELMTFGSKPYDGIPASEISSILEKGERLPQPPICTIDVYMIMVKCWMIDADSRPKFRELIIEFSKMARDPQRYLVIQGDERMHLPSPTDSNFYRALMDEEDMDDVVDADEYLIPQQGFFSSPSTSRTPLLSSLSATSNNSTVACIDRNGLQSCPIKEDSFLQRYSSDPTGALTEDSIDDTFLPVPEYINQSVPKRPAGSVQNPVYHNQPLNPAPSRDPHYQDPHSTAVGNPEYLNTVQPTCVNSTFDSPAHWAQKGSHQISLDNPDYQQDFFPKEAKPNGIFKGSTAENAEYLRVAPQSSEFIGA
T1 sequence (Q96SW2 whole entry partner): as the sequence (Q96SW2 whole entry) above

O=C1CCN(N2C(=O)c3ccc(CN4CCN(C5CCN(c6ccc(-c7cc(F)c8c(c7)C(=O)N(C(C(=O)Nc7nccs7)c7ncn9c7CCC9)C8)cc6)CC5(F)F)CC4)cc3C2=O)C(=O)N1 (stereo not shown) [GT-06316, 2-(6,7-dihydro-5H-pyrrolo[1,2-c]imidazol-1-yl)-2-(6-(4-(4-(4-((2-(2,4-dioxotetrahydropyrimidin-1(2H)-yl)-1,3-dioxoisoindolin-5-yl)methyl)piperazin-1-yl)-3,3-difluoropiperidin-1-yl)phenyl)-4-fluoro-1-oxoisoindolin-2-yl)-N-(thiazol-2-yl)acetamide]
IC50 [1]: 50 to 100 nM

O=C1CCN(N2Cc3cc(CN4CCN(c5ccc(-c6cc(F)c7c(c6)C(=O)N(C(C(=O)Nc6nccs6)c6ncn8c6CCC8)C7)cc5)CC4)ccc3C2=O)C(=O)N1 (stereo not shown) [GT-06159, 2-(6,7-dihydro-5H-pyrrolo[1,2-c]imidazol-1-yl)-2-(6-(4-(4-((2-(2,4-dioxotetrahydropyrimidin-1(2H)-yl)-1-oxoisoindolin-5-yl)methyl)piperazin-1-yl)phenyl)-4-fluoro-1-oxoisoindolin-2-yl)-N-(thiazol-2-yl)acetamide]
IC50 [1]: < 10 nM | Degradation of substrate protein EGFR (substrate protein remaining %) (EGFR): A (0%≤substrate protein remaining %≤80%)

CN(Cc1ccc2c(c1)C(=O)N(N1CCC(=O)NC1=O)C2=O)C1CCN(c2ccc(-c3cc(F)c4c(c3)C(=O)N(C(C(=O)Nc3nccs3)c3ncn5c3CCC5)C4)cc2)CC1 (stereo not shown) [GT-05196, 2-(6,7-dihydro-5H-pyrrolo[1,2-c]imidazol-1-yl)-2-(6-(4-(4-(((2-(2,4-dioxotetrahydropyrimidin-1(2H)-yl)-1,3-dioxoisoindolin-5-yl)methyl)(methyl)amino)piperidin-1-yl)phenyl)-4-fluoro-1-oxoisoindolin-2-yl)-N-(thiazol-2-yl)acetamide]
IC50 [1]: 10 to 50 nM

CN(C)C/C=C/C(=O)Nc1cc2c(Nc3ccc(F)c(Cl)c3)ncnc2cc1O[C@H]1CCOC1 [afatinib, Afatinib, reference compound]
IC50 [1]: 130 to 200 nM

O=C1CCN(N2C(=O)c3ccc(CN4C[C@H]5C[C@@H]4CN5c4ccc(-c5cc(F)c6c(c5)C(=O)N(C(C(=O)Nc5nccs5)c5ncn7c5CCC7)C6)cc4)cc3C2=O)C(=O)N1 (stereo partly drawn) [GT-06173, 2-(6,7-dihydro-5H-pyrrolo[1,2-c]imidazol-1-yl)-2-(6-(4-((1R,4R)-5-((2-(2,4-dioxotetrahydropyrimidin-1(2H)-yl)-1,3-dioxoisoindolin-5-yl)methyl)-2,5-diazabicyclo[2.2.1]heptan-2-yl)phenyl)-4-fluoro-1-oxoisoindolin-2-yl)-N-(thiazol-2-yl)acetamide]
IC50 [1]: 50 to 100 nM

O=C1CCN(N2C(=O)c3cccc(N4CCC(CN5CCN(c6ccc(-c7cc(F)c8c(c7)C(=O)N(C(C(=O)Nc7nccs7)c7ncn9c7CCC9)C8)cc6)CC5)CC4)c3C2=O)C(=O)N1 (stereo not shown) [GT-06162, 2-(6,7-dihydro-5H-pyrrolo[1,2-c]imidazol-1-yl)-2-(6-(4-(4-((1-(2-(2,4-dioxotetrahydropyrimidin-1(2H)-yl)-1,3-dioxoisoindolin-4-yl)piperidin-4-yl)methyl)piperazin-1-yl)phenyl)-4-fluoro-1-oxoisoindolin-2-yl)-N-(thiazol-2-yl)acetamide]
IC50 [1]: 10 to 50 nM

O=C1CCN(N2Cc3cc(CN4C5CCC4CN(c4ccc(-c6cc(F)c7c(c6)C(=O)N(C(C(=O)Nc6nccs6)c6ncn8c6CCC8)C7)cc4)C5)ccc3C2=O)C(=O)N1 (stereo not shown) [GT-06250, 2-(6,7-dihydro-5H-pyrrolo[1,2-c]imidazol-1-yl)-2-(6-(4-(8-((2-(2,4-dioxotetrahydropyrimidin-1(2H)-yl)-1-oxoisoindolin-5-yl)methyl)-3,8-diazabicyclo[3.2.1]octan-3-yl)phenyl)-4-fluoro-1-oxoisoindolin-2-yl)-N-(thiazol-2-yl)acetamide]
IC50 [1]: < 10 nM

O=C1CCN(N2C(=O)c3ccc(CN4CCN(C5CCN(c6ccc(-c7cc(F)c8c(c7)C(=O)N(C(C(=O)Nc7nccs7)c7ncn9c7CCC9)C8)cc6)CC5)CC4)cc3C2=O)C(=O)N1 (stereo not shown) [GT-06242, 2-(6,7-dihydro-5H-pyrrolo[1,2-c]imidazol-1-yl)-2-(6-(4-(4-(4-((2-(2,4-dioxotetrahydropyrimidin-1(2H)-yl)-1,3-dioxoisoindolin-5-yl)methyl)piperazin-1-yl)piperidin-1-yl)phenyl)-4-fluoro-1-oxoisoindolin-2-yl)-N-(thiazol-2-yl)acetamide]
IC50 [1]: 50 to 100 nM

O=C1CCN(N2Cc3cc(CN4C[C@H]5C[C@@H]4CN5c4ccc(-c5cc(F)c6c(c5)C(=O)N(C(C(=O)Nc5nccs5)c5ncn7c5CCC7)C6)cc4)ccc3C2=O)C(=O)N1 (stereo partly drawn) [GT-06172, 2-(6,7-dihydro-5H-pyrrolo[1,2-c]imidazol-1-yl)-2-(6-(4-((1R,4R)-5-((2-(2,4-dioxotetrahydropyrimidin-1(2H)-yl)-1-oxoisoindolin-5-yl)methyl)-2,5-diazabicyclo[2.2.1]heptan-2-yl)phenyl)-4-fluoro-1-oxoisoindolin-2-yl)-N-(thiazol-2-yl)acetamide]
IC50 [1]: < 10 nM

O=C1CCN(N2C(=O)c3ccc(CN4CCN(c5ccc(-c6cc(F)c7c(c6)C(=O)N(C(C(=O)Nc6nccs6)c6ncn8c6CCC8)C7)cc5)CC4)cc3C2=O)C(=O)N1 (stereo not shown) [GT-06160, 2-(6,7-dihydro-5H-pyrrolo[1,2-c]imidazol-1-yl)-2-(6-(4-(4-((2-(2,4-dioxotetrahydropyrimidin-1(2H)-yl)-1,3-dioxoisoindolin-5-yl)methyl)piperazin-1-yl)phenyl)-4-fluoro-1-oxoisoindolin-2-yl)-N-(thiazol-2-yl)acetamide]
IC50 [1]: 100 to 130 nM

O=C1CCN(N2C(=O)c3ccc(CN4C5CCC4CN(c4ccc(-c6cc(F)c7c(c6)C(=O)N(C(C(=O)Nc6nccs6)c6ncn8c6CCC8)C7)cc4)C5)cc3C2=O)C(=O)N1 (stereo not shown) [GT-06251, 2-(6,7-dihydro-5H-pyrrolo[1,2-c]imidazol-1-yl)-2-(6-(4-(8-((2-(2,4-dioxotetrahydropyrimidin-1(2H)-yl)-1,3-dioxoisoindolin-5-yl)methyl)-3,8-diazabicyclo[3.2.1]octan-3-yl)phenyl)-4-fluoro-1-oxoisoindolin-2-yl)-N-(thiazol-2-yl)acetamide]
IC50 [1]: 100 to 130 nM

O=C1CCN(N2Cc3cc(CN4CCC(N5CCN(c6ccc(-c7cc(F)c8c(c7)C(=O)N(C(C(=O)Nc7nccs7)c7ncn9c7CCC9)C8)cc6)CC5)CC4)ccc3C2=O)C(=O)N1 (stereo not shown) [GT-06324, 2-(6,7-dihydro-5H-pyrrolo[1,2-c]imidazol-1-yl)-2-(6-(4-(4-(1-((2-(2,4-dioxotetrahydropyrimidin-1(2H)-yl)-1-oxoisoindolin-5-yl)methyl)piperidin-4-yl)piperazin-1-yl)phenyl)-4-fluoro-1-oxoisoindolin-2-yl)-N-(thiazol-2-yl)acetamide]
IC50 [1]: 10 to 50 nM | Inhibition Rate at 0.5 μM (%) ([2]; 0.5 μM): a1 (10% < a1 ≤ 20%) | Inhibition Rate at 2 μM (%) ([2]; 2 μM): a5 (53% < a5 ≤ 60%)

C#Cc1cccc(Nc2ncnc3cc(OCCOC)c(OCCOC)cc23)c1 [erlotinib, Erlotinib, reference compound]
IC50 [1]: 1000 to 5000 nM
